Values after ≈ are worked out from the molar mass of the structure shown.
Key:
[1] = system: Human Heme Oxygenase-1 (HMOX-1); assay: ELISA assay to measure human heme oxygenase-1 (HMOX-1) in HepG2 lysate; type: cell-based; conditions: for EC50: human HMOX1 protein level in HepG2 lysate, * = average of 2 or more EC50 determinations, NA = Not Active, read-out: EC50
Method in brief: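 HO-1 protein levels were read as fold change over DMSO-treated cells, with EC50 derived from these values. Quantitation used a chemiluminescent streptavidin-HRP capture ELISA, calibrated with an HO-1 standard series starting at 20 ng/ml, run at 20 °C. Samples were HepG2 lysates made with Triton X100/EDTA buffer and diluted 1:20.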

[2] = Kinetic solubility; type: physicochemical; conditions: Dulbecco's phosphate buffer saline (DPBS), aqueous buffer, kinetic from dmso stock, DPBS pH 7.4, 25° C., 200 μM test compound
Method in brief: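 Compound from 10 mM DMSO stock diluted to 200 μM final in DPBS pH 7.4 and, separately, in DMSO, in duplicate. Shaken 16 h at 25 °C, then centrifuged 20 min at 25 °C. Supernatant analysed by HPLC.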

[3] = molecular target: hERG channel (Homo sapiens, UniProt Q12809); assay: hERG manual patch clamp assay; type: cell-based; conditions: HEK 293 cells stably expressing hERG channel, pH 7.35, 10 μM compound
Protocol: Cell Lines and Cell Culture
HEK 293 cell line stably expressing hERG channel (Cat # K1236) was purchased from Invitrogen. The cells were cultured in 85% DMEM, 10% dialyzed FBS, 0.1 mM NEAA, 25 mM HEPES, 100 U/mL Penicillin-Streptomycin and 5 μg/mL Blasticidin and 400 μg/mL Geneticin. Cells were split using TrypLE™ Express about three times a week, and maintained between ˜40% to ˜80% confluence. Before the assay, the cells were transferred onto the coverslips at 5×10^5 cells/per 6 cm cell culture dish and induced with doxycycline at 1 μg/mL for 48 hours.
• 1) External solution (in mM): 132 NaCl, 4 KCl, 3 CaCl2, 0.5 MgCl2, 11.1 glucose, and 10 HEPES (pH adjusted to 7.35 with NaOH) • 2) Internal solution (in mM): 140 KCl, 2 MgCl2, 10 EGTA, 10 HEPES and 5 MgATP (pH adjusted to 7.35 with KOH) • 3) hERG currents were tested in presence of 10 μM compound concentration with final concentration of DMSO of 0.1%. Experimental Procedure • 1) Removed the coverslip from the cell culture dish and placed it on the microscope stage in bath chamber. • 2) Located a desirable cell using the 10× objective. Located the tip of the electrode under the microscope using the 10× objective by focusing above the plane of the cells. Once the tip was in focus, advanced the electrode downwards towards the cell using the coarse controls of the manipulator, while simultaneously moving the objective to keep the tip in focus. • 3) When directly over the cell, switched to the 40× objective and used the fine controls of the manipulator to approach the surface of the cell in small steps. • 4) Applied gentle suction through the side-port of the electrode holder to form a gigaohm seal. • 5) Used the Cfast to remove the capacity current that was in coincidence with the voltage step. Obtained the whole cell configuration by applying repetitive, brief, strong suction until the membrane patch ruptured. • 6) Set membrane potential to −60 mV at this point to ensure that hERG channels were not • open. The spikes of capacity current should then be cancelled using the Cslow on the amplifier. 7) Set holding potential to −90 mV for 500 ms; recorded current at 50 kHz and filtered at 10 kHz. Leaking current was tested at −80 mV for 500 ms. • 8) The hERG current was elicited by depolarizing at +30 mV for 4.8 seconds and then the voltage was taken back to −50 mV for 5.2 seconds to remove the inactivation and observe the deactivating tail current. The maximum amount of tail current size was used to determine hERG current amplitude. • 9) Recorded current for 120 seconds to assess the current stability. Only stable cells with recording parameters above threshold were applied for the compound administrations. • 10) Firstly vehicle control was applied to the cells to establish the baseline. […] In order to ensure the good performance of cultured cells and operations, the positive control, Dofetilide, with 5 dose concentration was also used to test the same batch of cells. Data Analysis
The following criteria were used to determine data acceptability. • 1) Initial seal resistance >1 GΩ; • 2) Leak currents <50% of the control peak tail currents at any time; • 3) The peak tail amplitude >250 pA; • 4) Membrane resistance Rm>500 MΩ; • 5) Access resistance (Ra)<10 MΩ; • 6) Apparent run-down of peak current <2.5% per min.
Data that met the above criteria for hERG current quality were further analyzed as the following steps. • 1) Percent hERG current inhibition was calculated using the following equation. • Note: PatchMaster or Clampfit software was used to extract the peak current from the original data.
[formula] • 2) The dose response curve of test compounds was plotted with percentage of hERG current inhibition against the concentration of test compounds using Graphpad Prism 6.0, and fit to a sigmoid dose-response curve with a variable slope.

hERG channel, sequence (Q12809 whole entry): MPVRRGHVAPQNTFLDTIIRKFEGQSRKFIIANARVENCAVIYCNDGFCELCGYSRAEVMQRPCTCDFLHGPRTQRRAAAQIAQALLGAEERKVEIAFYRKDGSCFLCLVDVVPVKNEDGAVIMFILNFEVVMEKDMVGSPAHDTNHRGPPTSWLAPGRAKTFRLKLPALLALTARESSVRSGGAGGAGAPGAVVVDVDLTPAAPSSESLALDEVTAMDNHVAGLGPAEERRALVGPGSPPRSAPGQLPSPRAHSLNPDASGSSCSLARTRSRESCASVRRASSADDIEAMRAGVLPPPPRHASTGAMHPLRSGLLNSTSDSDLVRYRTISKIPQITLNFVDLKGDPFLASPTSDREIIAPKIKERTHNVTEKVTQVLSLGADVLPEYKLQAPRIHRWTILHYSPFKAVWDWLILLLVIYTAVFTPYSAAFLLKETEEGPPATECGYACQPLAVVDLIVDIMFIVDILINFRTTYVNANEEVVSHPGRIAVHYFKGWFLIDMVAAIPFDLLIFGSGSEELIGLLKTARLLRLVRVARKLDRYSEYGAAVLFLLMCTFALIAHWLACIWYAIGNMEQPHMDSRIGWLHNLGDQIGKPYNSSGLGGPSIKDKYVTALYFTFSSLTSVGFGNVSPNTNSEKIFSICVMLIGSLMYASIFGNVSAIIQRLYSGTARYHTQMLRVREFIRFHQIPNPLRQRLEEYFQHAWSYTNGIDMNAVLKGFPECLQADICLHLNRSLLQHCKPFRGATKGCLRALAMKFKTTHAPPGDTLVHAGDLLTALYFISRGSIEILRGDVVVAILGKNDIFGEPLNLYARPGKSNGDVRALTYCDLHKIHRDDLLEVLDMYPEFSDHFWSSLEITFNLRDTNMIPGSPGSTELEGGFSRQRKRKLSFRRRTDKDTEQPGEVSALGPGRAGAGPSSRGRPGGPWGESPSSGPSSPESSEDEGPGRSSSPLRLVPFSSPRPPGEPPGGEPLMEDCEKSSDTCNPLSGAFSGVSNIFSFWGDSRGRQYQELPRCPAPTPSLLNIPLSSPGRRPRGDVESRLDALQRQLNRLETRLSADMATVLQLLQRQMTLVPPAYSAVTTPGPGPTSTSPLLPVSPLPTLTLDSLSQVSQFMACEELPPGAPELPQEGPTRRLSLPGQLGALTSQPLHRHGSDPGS

Structure (SMILES)	EC50 [1] [nM]	solubility at 16 h [2] [µM]	inhibition at 10 µM [3] [%]	Maximum Fold induction ([1]; fold change of human HMOX1 protein level relative to DMSO control, HepG2) [fold]
Cn1c(Nc2nc3ccc(C(F)(F)F)cc3o2)nc2cc(C(=O)NCCOCCO)ccc21 [Example 34]	800	8 (≈ 3.71 µg/mL)	61	–
Cn1c(Nc2nc3ccccc3o2)nc2cc(C(=O)NCCN3CCOCC3)ccc21 [Example 20, 2-(benzo[d]oxazol-2-ylamino)-1-methyl-N-(2-morpholinoethyl)-1H-benzo[d]imidazole-5-carboxamide]	1000	7.3 (≈ 3.07 µg/mL)	59	–
COCCOc1ccc2nc(Nc3nc4cc(C(=O)NCCOCCO)ccc4n3C)oc2c1 [Example 58, N-(2-(2-hydroxyethoxy)ethyl)-2-((6-(2-methoxyethoxy)benzo[d]oxazol-2-yl)amino)-1-methyl-1H-benzo[d]imidazole-5-carboxamide]	1700	7.7 (≈ 3.62 µg/mL)	11	–
Cn1c(Nc2nc3ccc(N4CCCC4)cc3o2)nc2cc(C(=O)NCCOCCO)ccc21 [Example 137, N-(2-(2-hydroxyethoxy)ethyl)-1-methyl-2-((6-(pyrrolidin-1-yl)benzo[d]oxazol-2-yl)amino)-1H-benzo[d]imidazole-5-carboxamide]	1300	6.9 (≈ 3.21 µg/mL)	18	–
Cn1c(Nc2nc3ccc(C(F)(F)F)cc3o2)nc2cc(C(=O)O)ccc21 [Example 31, 1-methyl-2-((6-(trifluoromethyl)benzo[d]oxazol-2-yl)amino)-1H-benzo[d]imidazole-5-carboxylic acid]	1100	14.9 (≈ 5.61 µg/mL)	0	–
Cn1c(Nc2nc3ccccc3o2)nc2cc(C(=O)NCC3(O)COC3)ccc21 [Example 26, 2-(benzo[d]oxazol-2-ylamino)-N-((3-hydroxyoxetan-3-yl)methyl)-1-methyl-1H-benzo[d]imidazole-5-carboxamide]	2000	8.6 (≈ 3.38 µg/mL)	18	–
COCCNC(=O)c1ccc2c(c1)nc(Nc1nc3cc(OC(F)(F)F)ccc3[nH]1)n2C [Example 14, N-(2-methoxyethyl)-1-methyl-2-((5-(trifluoromethoxy)-1H-benzo[d]imidazol-2-yl)amino)-1H-benzo[d]imidazole-5-carboxamide]	2300	4.2 (≈ 1.88 µg/mL)	87	6.25
COCCNC(=O)c1ccc2c(c1)nc(Nc1nc3ccc(F)cc3o1)n2C [Example 69, 2-((6-fluorobenzo[d]oxazol-2-yl)amino)-N-(2-methoxyethyl)-1-methyl-1H-benzo[d]imidazole-5-carboxamide]	660	< 5	38	–
Cn1c(Nc2nc3ccc(OC(F)F)cc3o2)nc2cc(C(=O)O)ccc21 [Example 62, 2-((6-(difluoromethoxy)benzo[d]oxazol-2-yl)amino)-1-methyl-1H-benzo[d]imidazole-5-carboxylic acid]	5100	16.2 (≈ 6.06 µg/mL)	13	–
COCCOc1ccc2nc(Nc3nc4cc(C(=O)NOCCO)ccc4n3C)oc2c1 [Example 128, N-(2-hydroxyethoxy)-2-((6-(2-methoxyethoxy)benzo[d]oxazol-2-yl)amino)-1-methyl-1H-benzo[d]imidazole-5-carboxamide]	1200	4.7 (≈ 2.07 µg/mL)	18	–
CN(C)CCONC(=O)c1ccc2c(c1)nc(Nc1nc3ccc(C(F)(F)F)cc3o1)n2C [Example 122, N-(2-(dimethylamino)ethoxy)-1-methyl-2-((6-(trifluoromethyl)benzo[d]oxazol-2-yl)amino)-1H-benzo[d]imidazole-5-carboxamide]	400	5.1 (≈ 2.36 µg/mL)	87	–
COCCOc1ccc2nc(Nc3nc4cc(C(=O)NCCO)ccc4n3C)oc2c1 [Example 57, N-(2-hydroxyethyl)-2-((6-(2-methoxyethoxy)benzo[d]oxazol-2-yl)amino)-1-methyl-1H-benzo[d]imidazole-5-carboxamide]	1200	11.2 (≈ 4.76 µg/mL)	15	–
CC1CCc2nc(Nc3nc4cc(C(=O)NCCOCCO)ccc4n3C)sc2C1 (centres unmarked) [Ex 7, N-(2-(2-hydroxyethoxy)ethyl)-1-methyl-2-((6-methyl-4,5,6,7-tetrahydrobenzo[d]thiazol-2-yl)amino)-1H-benzo[d]imidazole-5-carboxamide]	–	–	6	–
CCn1c(Nc2nc3ccc(OC(F)(F)F)cc3o2)nc2cc(C(=O)NCCO)ccc21 [Example 86, 1-ethyl-N-(2-hydroxyethyl)-2-((6-(trifluoromethoxy)benzo[d]oxazol-2-yl)amino)-1H-benzo[d]imidazole-5-carboxamide]	1300	7.1 (≈ 3.19 µg/mL)	64	–
COCCn1c(Nc2nc3cc(OC(F)(F)F)ccc3[nH]2)nc2cc(C(=O)O)ccc21 [Example 75, 1-(2-methoxyethyl)-2-((5-(trifluoromethoxy)-1H-benzo[d]imidazol-2-yl)amino)-1H-benzo[d]imidazole-5-carboxylic acid]	370	11.6 (≈ 5.05 µg/mL)	9	–
CC(O)COCCNC(=O)c1ccc2c(c1)nc(Nc1nc3ccccc3o1)n2C (centres unmarked) [Example 25]	2200	6.1 (≈ 2.5 µg/mL)	8	–
Cl.Cn1c(Nc2nc3ccccc3o2)nc2cc(C(=O)NCCN)ccc21 [Example 18, N-(2-aminoethyl)-2-(benzo[d]oxazol-2-ylamino)-1-methyl-1H-benzo[d]imidazole-5-carboxamide hydrochloride]	700	12.4	12	–
CC(O)CNC(=O)c1ccc2c(c1)nc(Nc1nc3ccccc3o1)n2C (centres unmarked) [Example 23, 2-(benzo[d]oxazol-2-ylamino)-N-(2-hydroxypropyl)-1-methyl-1H-benzo[d]imidazole-5-carboxamide]	2100	> 20	24	–
CN(C)CC(=O)NCCNC(=O)c1ccc2c(c1)nc(Nc1nc3ccccc3o1)n2C [Example 19, 2-(benzo[d]oxazol-2-ylamino)-N-(2-(2-(dimethylamino)acetamido)ethyl)-1-methyl-1H-benzo[d]imidazole-5-carboxamide]	1800	–	29	–
Cn1c(Nc2nc3cc(F)ccc3[nH]2)nc2cc(C(=O)O)ccc21 [Example 73, 2-((5-fluoro-1H-benzo[d]imidazol-2-yl)amino)-1-methyl-1H-benzo[d]imidazole-5-carboxylic acid]	2900	–	5	–
CN(C)CCONC(=O)c1ccc2c(c1)nc(Nc1nc3ccccc3o1)n2C [Example 123, 2-(benzo[d]oxazol-2-ylamino)-N-(2-(dimethylamino)ethoxy)-1-methyl-1H-benzo[d]imidazole-5-carboxamide]	–	10.5 (≈ 4.14 µg/mL)	54	–

Source: US10766888B1, “HMOX1 inducers” (Mitobridge Inc., priority 2019, dated 2020)
